Laboratory results: patent US11325980B2, “Combination therapy using a LIV1-ADC and a chemotherapeutic” (SEATTLE GENETICS, INC., priority 2016, dated 2022)

Test system: MCF-7 cells
Assay: In vivo tumor growth inhibition (TGI), MCF-7 cells implanted subcutaneously in NSG mice
Parameters: species or system NOD Scid Gamma (NSG) mice
Settings: for ranking of combinatorial benefit in vivo: combined with SGN-LIV1A, doses of Table 2, nab-paclitaxel 10 mg/kg; for Expected combination TGI: expected additive; for Combinatorial benefit: observed minus expected combination TGI; for TGI: single agent
Procedure: NOD Scid Gamma (NSG) mice were obtained from Jackson Laboratory and implanted with 17-β-estradiol pellet (Innovative Research of America; Sarasota, Fla.) one day prior to cell implant. Five million MCF-7 cells were implanted subcutaneously with Matrigel (BD Biosciences; Franklin Lakes, N.J.) and tumor volume was determined by a digital caliper twice a week, using the formula: volume=½×length width^2.
Mice received treatments when the average tumor volume reached 100 mm^3. The treatment regimen for each agent was: doxorubicin, 1 mg/kg q4dx3 intravenous (IV); SGN-LIV1, 1 mg/kg q4dx4 intraperitoneal (IP); […]; carboplatin 10 mg/kg q7dx3 IP; cyclophosphamide, 40 mg/kg q7dx3 IV; gemcitabine 20 mg/kg q7dx2 IP; and paclitaxel 10 mg/kg q3dx5 IP. Combination groups received the first dose of SGN-LIV1A and combination drug on the same day. n=6 for each group. The effects of each drug and their combination on tumor growth were plotted in FIGS. 6-8.
To determine the combined benefit in vivo, tumor growth inhibition (TGI) was compared using the area under the curve between untreated, single agent groups, and combined groups on the date the untreated animals were euthanized (Table 2). […] Thus, the expected additive TGI for combination is […].

[1] = named drug 10 mg/kg combined with 1 mg/kg SGN-LIV1A
[2] = named drug 40 mg/kg combined with 1 mg/kg SGN-LIV1A
[3] = named drug 1 mg/kg combined with 1 mg/kg SGN-LIV1A
[4] = dose 1 mg/kg, AUC vs untreated on the date untreated animals were euthanized
[5] = named drug 20 mg/kg combined with 1 mg/kg SGN-LIV1A

N.N.O=C([O-])C1(C(=O)[O-])CCC1.[Pt+2] [carboplatin]
ranking of combinatorial benefit in vivo: highest combinatorial benefit | Observed combination TGI [1]: 60% | Expected combination TGI [1]: 52% | Combinatorial benefit (named drug 10 mg/kg with 1 mg/kg SGN-LIV1A): 8% | TGI (dose 10 mg/kg, AUC vs untreated): 21%

O=P1(N(CCCl)CCCl)NCCCO1 (centres unmarked) [cyclophosphamide]
Observed combination TGI [2]: 39% | Expected combination TGI [2]: 45% | Combinatorial benefit (named drug 40 mg/kg with 1 mg/kg SGN-LIV1A): −6% | TGI (dose 40 mg/kg, AUC vs untreated): 10%

COc1cccc2c1C(=O)c1c(O)c3c(c(O)c1C2=O)C[C@@](O)(C(=O)CO)C[C@@H]3O[C@H]1C[C@H](N)[C@H](O)[C@H](C)O1 [doxorubicin]
ranking of combinatorial benefit in vivo: highest combinatorial benefit | Observed combination TGI [3]: 75% | Expected combination TGI [3]: 55% | Combinatorial benefit (named drug 1 mg/kg with 1 mg/kg SGN-LIV1A): 20% | TGI [4]: 26%

Nc1ccn([C@@H]2O[C@H](CO)[C@@H](O)C2(F)F)c(=O)n1 [gemcitabine]
Observed combination TGI [5]: 54% | Expected combination TGI [5]: 51% | combined effect in vivo (named drug 20 mg/kg when combined with SGN-LIV1A): nearly additive | Combinatorial benefit (named drug 20 mg/kg with 1 mg/kg SGN-LIV1A): 3% | TGI (dose 20 mg/kg, AUC vs untreated): 20%

B1: SGN-LIV1A: LIV-1-directed antibody-drug conjugate: humanized antibody hLIV22, valine-citrulline linker, monomethyl auristatin E; average of 4 MMAE per antibody (conjugate, chains of the INN, looked up)
VH: QVQLVQSGAEVKKPGASVKVSCKASGLTIEDYYMHWVRQAPGQGLEWMGWIDPENGDTEYGPKFQGRVTMTRDTSINTAYMELSRLRSDDTAVYYCAVHNAHYGTWFAYWGQGTLVTVSS
VL: DVVMTQSPLSLPVTLGQPASISCRSSQSLLHSSGNTYLEWYQQRPGQSPRPLIYKISTRFSGVPDRFSGSGSGTDFTLKISRVEAEDVGVYYCFQGSHVPYTFGGGTKVEIK
modifications: vedotin (vc-MMAE)
notes: LIV-1-directed antibody-drug conjugate: humanized antibody hLIV22, valine-citrulline linker, monomethyl auristatin E; average of 4 MMAE per antibody
TGI [4]: 39%
